The supplement of paper PMC10307832

Experiments:
Experiment in all cases: relative viability (nuclei count vs DMSO), 5 days (fraction); higher = more cells survive
EMC-BAC-2 = test system: EMC-BAC-2
Method in brief: (§1)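 A single step with final 0.05% Triton X-100, 1% formaldehyde and 1 ug/ml Hoechst fixed the cells and stained nuclei 5 days after treatment. Lung cancer cell lines in 1536-well plates had been treated by pin tool the day after seeding with one drug alone or a fixed anchor-drug dose plus five library-drug doses (not always all listed) in √10 steps, and nuclei were counted on 4× images. Relative viability is the ratio of nuclei in treated wells to nuclei in vehicle wells, taken as the median of duplicate plates.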

NCI-H23 = test system: NCI-H23
Method in brief: as §1

NCI-H1915 = test system: NCI-H1915
Method in brief: as §1

HOP-62 = test system: HOP-62
Method in brief: as §1

NCI-H460 = test system: NCI-H460
Method in brief: as §1

CAL-12T = test system: CAL-12T
Method in brief: as §1

LCLC-103H = test system: LCLC-103H
Method in brief: as §1

NCI-H1755 = test system: NCI-H1755
Method in brief: as §1

NCI-H727 = test system: NCI-H727
Method in brief: as §1

A-427 = test system: A-427
Method in brief: as §1

NCI-H1792 = test system: NCI-H1792
Method in brief: as §1

HCC-827 = test system: HCC-827
Method in brief: as §1

SW 1573 = test system: SW 1573
Method in brief: as §1

SK-LU-1 = test system: SK-LU-1
Method in brief: as §1

HARA = test system: HARA
Method in brief: as §1

NCI-H2009 = test system: NCI-H2009
Method in brief: as §1

HCC-366 = test system: HCC-366
Method in brief: as §1

COR-L 105 = test system: COR-L 105
Method in brief: as §1

NCI-H2228 = test system: NCI-H2228
Method in brief: as §1

NCI-H1437 = test system: NCI-H1437
Method in brief: as §1

O=c1cc(N2CCOCC2)oc2c(-c3cccc4c3sc3ccccc34)cccc12 + C[C@@H](Oc1cc(-c2cnn(C3CCNCC3)c2)cnc1N)c1c(Cl)ccc(F)c1Cl [Crizotinib] (partner 1 µM)
relative viability (EMC-BAC-2; first compound 0.01 µM): 0.787
relative viability (EMC-BAC-2; first compound 0.03162 µM): 0.788
relative viability (EMC-BAC-2; first compound 0.1 µM): 0.847
relative viability (EMC-BAC-2; first compound 0.3162 µM): 0.77
relative viability (EMC-BAC-2; first compound 1 µM): 0.735
relative viability (NCI-H23; first compound 0.01 µM): 0.59
relative viability (NCI-H23; first compound 0.03162 µM): 0.586
relative viability (NCI-H23; first compound 0.3162 µM): 0.508
relative viability (NCI-H23; first compound 1 µM): 0.506
relative viability (NCI-H1915; first compound 0.01 µM): 0.875
relative viability (NCI-H1915; first compound 0.03162 µM): 0.879
relative viability (NCI-H1915; first compound 0.1 µM): 0.939
relative viability (NCI-H1915; first compound 0.3162 µM): 0.876
relative viability (NCI-H1915; first compound 1 µM): 0.933
relative viability (HOP-62; first compound 0.01 µM): 1.06
relative viability (HOP-62; first compound 0.03162 µM): 0.931
relative viability (HOP-62; first compound 0.1 µM): 0.931
relative viability (HOP-62; first compound 0.3162 µM): 0.945
relative viability (HOP-62; first compound 1 µM): 1.04
relative viability (NCI-H460; first compound 0.01 µM): 0.822
relative viability (NCI-H460; first compound 0.03162 µM): 0.99
relative viability (NCI-H460; first compound 0.1 µM): 0.988
relative viability (NCI-H460; first compound 0.3162 µM): 1.1
relative viability (NCI-H460; first compound 1 µM): 0.922
relative viability (CAL-12T; first compound 0.01 µM): 0.58
relative viability (CAL-12T; first compound 0.03162 µM): 0.657
relative viability (CAL-12T; first compound 0.1 µM): 0.767
relative viability (CAL-12T; first compound 0.3162 µM): 0.591
relative viability (CAL-12T; first compound 1 µM): 0.775
relative viability (LCLC-103H; first compound 0.01 µM): 1.06
relative viability (LCLC-103H; first compound 0.03162 µM): 0.976
relative viability (LCLC-103H; first compound 0.1 µM): 1.12
relative viability (LCLC-103H; first compound 0.3162 µM): 0.958
relative viability (LCLC-103H; first compound 1 µM): 1.07
relative viability (NCI-H1755; first compound 0.01 µM): 0.875
relative viability (NCI-H1755; first compound 0.03162 µM): 0.812
relative viability (NCI-H1755; first compound 0.1 µM): 0.838
relative viability (NCI-H1755; first compound 0.3162 µM): 0.807
relative viability (NCI-H1755; first compound 1 µM): 0.767
relative viability (NCI-H727; first compound 0.01 µM): 0.887
relative viability (NCI-H727; first compound 0.03162 µM): 0.893
relative viability (NCI-H727; first compound 0.1 µM): 0.751
relative viability (NCI-H727; first compound 0.3162 µM): 0.734
relative viability (NCI-H727; first compound 1 µM): 0.932
relative viability (A-427; first compound 0.01 µM): 0.983
relative viability (A-427; first compound 0.03162 µM): 0.851
relative viability (A-427; first compound 0.1 µM): 0.807
relative viability (A-427; first compound 0.3162 µM): 0.787
relative viability (A-427; first compound 1 µM): 0.925
relative viability (NCI-H1792; first compound 0.01 µM): 0.967
relative viability (NCI-H1792; first compound 0.03162 µM): 0.923
relative viability (NCI-H1792; first compound 0.1 µM): 0.741
relative viability (NCI-H1792; first compound 0.3162 µM): 0.939
relative viability (NCI-H1792; first compound 1 µM): 0.95
relative viability (HCC-827; first compound 0.01 µM): 0.918
relative viability (HCC-827; first compound 0.03162 µM): 0.939
relative viability (HCC-827; first compound 0.1 µM): 0.873
relative viability (HCC-827; first compound 0.3162 µM): 0.965
relative viability (HCC-827; first compound 1 µM): 0.956
relative viability (SW 1573; first compound 0.01 µM): 0.787
relative viability (SW 1573; first compound 0.03162 µM): 0.805
relative viability (SW 1573; first compound 0.1 µM): 0.808
relative viability (SW 1573; first compound 0.3162 µM): 0.74
relative viability (SW 1573; first compound 1 µM): 0.752
relative viability (SK-LU-1; first compound 0.03162 µM): 0.897
relative viability (SK-LU-1; first compound 0.1 µM): 0.828
relative viability (SK-LU-1; first compound 0.3162 µM): 0.993
relative viability (SK-LU-1; first compound 1 µM): 0.877
relative viability (HARA; first compound 0.01 µM): 0.996
relative viability (HARA; first compound 0.03162 µM): 1.05
relative viability (HARA; first compound 0.1 µM): 1.26
relative viability (HARA; first compound 0.3162 µM): 1.13
relative viability (HARA; first compound 1 µM): 0.988
relative viability (NCI-H2009; first compound 0.01 µM): 1.03
relative viability (NCI-H2009; first compound 0.03162 µM): 0.921
relative viability (NCI-H2009; first compound 0.1 µM): 1.02
relative viability (NCI-H2009; first compound 0.3162 µM): 0.995
relative viability (NCI-H2009; first compound 1 µM): 0.935
relative viability (HCC-366; first compound 0.01 µM): 0.457
relative viability (HCC-366; first compound 0.03162 µM): 0.506
relative viability (HCC-366; first compound 0.1 µM): 0.66
relative viability (HCC-366; first compound 0.3162 µM): 0.471
relative viability (HCC-366; first compound 1 µM): 0.598
relative viability (COR-L 105; first compound 0.01 µM): 0.655
relative viability (COR-L 105; first compound 0.03162 µM): 0.649
relative viability (COR-L 105; first compound 0.1 µM): 0.856
relative viability (COR-L 105; first compound 0.3162 µM): 0.724
relative viability (COR-L 105; first compound 1 µM): 0.589
relative viability (NCI-H2228; first compound 0.03162 µM): 0.479
relative viability (NCI-H2228; first compound 0.1 µM): 0.501
relative viability (NCI-H2228; first compound 0.3162 µM): 0.403
relative viability (NCI-H2228; first compound 1 µM): 0.471
relative viability (NCI-H1437; first compound 0.01 µM): 0.963
relative viability (NCI-H1437; first compound 0.03162 µM): 0.896
relative viability (NCI-H1437; first compound 0.1 µM): 0.959
relative viability (NCI-H1437; first compound 0.3162 µM): 0.915
relative viability (NCI-H1437; first compound 1 µM): 0.82
